In patent US20200247815A1, “PYRAZOLYL-CONTAINING TRICYCLIC DERIVATIVE, PREPARATION METHOD THEREFOR AND USE THEREOF” (Jiangsu Hansoh Pharmaceutical Group Co., Ltd., priority 2017, published 2020):

Columns and labels:
[1] = Pharmacokinetics assay in mice (oral, plasma); type: in vivo, Balb/c Mouse
Method: Balb/c Mouse was used as the test animal. The pharmacokinetic behavior of compounds of Example 1, 2 and 7 administrated orally was studied in mice (plasma).
170 g of PEG400 and 20 g of Solutol HS-15 were added to a 250 mL glass flask, and then 10 mL of NMP was added. The solution was mixed well by ultrasound for 10 minutes to obtain a clear solution.
11.2 mg of the compound of Example 1, 10.8 mg of the compound of Example 2 and 9.8 mg of the compound of Example 7 were weighted to a 4 mL glass flasks respectively, […], 2.160 mL and […] of the above solution were treated by ultrasound for 10 minutes to obtain a colorless clear solution with a concentration of 5 mg/mL.
After fasting overnight, the male Balb/c mice were administrated with the compounds (PO), the dose was 50 mg/kg, and the administration volume was 10 mL/kg.
Blood was taken before administration and at 0.25, 0.5, 1, 2, 4, 6, 8 and 24 hours after administration. The blood samples were stored in EDTA-2K tubes, and centrifuged for 6 minutes to separate the blood plasma. The plasma samples were stored at −80° C.

[2] = tested on: human pancreatic cancer cell MiaPaca 2 xenograft (CDX) model; experiment: Tumor inhibition experiment in MiaPaca 2 xenograft model; type: in vivo, BALB/c nude mice
Method: BALB/c nude mice were used as test animals. In vivo pharmacodynamic test was carried out in human pancreatic cancer cell MiaPaca 2 xenograft (CDX) model to evaluate the antitumor effect of the test compound.
MiaPaca 2 cells were obtained from the cell bank. After recovery, the cells were added to a DMEM medium (containing 10% FBS, 1% Glu and 1% P/S), and incubated in the CO2 incubator (the incubator temperature was 37° C., and the CO2 concentration was 5%). The cells were subjected to passage after spreading 80-90% of the bottom of the culture flask. After passage, the cells were incubated in the CO2 incubator. This process was repeated until the number of cells met the required by in vivo pharmacological inoculation. Cells in log phase were collected, and counted by the automatic cell counter. The cells were re-suspended with PBS and Matrigel (1:1 by volume) based on the counting results to obtain a cell suspension (cell density: […]), which was placed in an ice box.
Female BALB/c nude mice (6-8 weeks old, body weight: 18-22 grams) were used as test animals. The mice were maintained in individually ventilated cages (5 mice per cage) in a special pathogen-free environment. All cages, padding and water were disinfected before use. All animals had free access to standard certified commercial laboratory diets. The nude mice were labeled with disposable ear tags before the experiment. The skin of the inoculated area was sterilized with 75% medical alcohol before inoculation. Each mouse was subcutaneously inoculated with 0.1 ml (containing 8*10^6 cells) of MiaPaca 2 tumor cells on the right back. Administration was started when the average tumor volume reached 100-200 mm^3. The test compound was administrated intragastrically daily. The tumor volume (mm^3) was measured with vernier caliper twice a week. Calculation formula: V=0.5*D*d*d, wherein D and d refer to the major and minor diameter of the tumor, respectively. The anti-tumor efficacy was determined by dividing the average tumor increase volume of compound-treated animals by the average tumor increase volume of untreated animals. Calculation formula of tumor inhibition rate: TGI (%)=1−[(Vt−V0)administration group/(Vt−V0)solvent control group]*100%. All animals were euthanized after the experiment.

ERK-1 kinase = molecular target: T1, ERK-1 kinase (Homo sapiens, UniProt P27361); experiment: Inhibition of ERK-1 kinase activity (LANCE Ultra TR-FRET); type: biochemical; settings: ERK1 enzyme 0.4 nM, ATP 38.15 μM
T1 construct: purchased Invitrogen PV3311
T1 sequence (P27361 whole entry): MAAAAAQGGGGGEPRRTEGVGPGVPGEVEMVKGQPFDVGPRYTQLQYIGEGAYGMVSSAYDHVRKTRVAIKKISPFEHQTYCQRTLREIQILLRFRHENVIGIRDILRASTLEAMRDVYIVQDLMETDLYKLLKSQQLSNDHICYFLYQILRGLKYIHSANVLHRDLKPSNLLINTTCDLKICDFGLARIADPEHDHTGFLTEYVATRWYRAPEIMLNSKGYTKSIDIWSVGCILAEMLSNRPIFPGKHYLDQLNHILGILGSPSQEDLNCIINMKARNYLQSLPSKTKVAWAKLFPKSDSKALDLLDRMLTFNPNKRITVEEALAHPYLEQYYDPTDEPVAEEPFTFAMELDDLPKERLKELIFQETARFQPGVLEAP
Method in brief: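 Reactions contained 0.4 nM ERK1, 0.5 μM Ulight-MBP peptide and 38.15 μM ATP in pH 7.4 Hepes/MgCl2 buffer with 4% DMSO and ran 60 minutes at room temperature. Detection used Eu-anti-p-MBP with a 665/615 nm TR-FRET ratio, normalised to DMSO and no-enzyme controls. Final concentrations were 100 nM to 0.005 nM, and IC50 came from a 4-parameter fit.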

[3] = Solubility (statement, no method); type: physicochemical
ERK-2 kinase = molecular target: T2, ERK-2 kinase (Homo sapiens, UniProt P28482); experiment: Inhibition of ERK-2 kinase activity (LANCE Ultra TR-FRET); type: biochemical; settings: ERK-2 enzyme 0.08 nM, ATP 38.15 μM
T2 construct: purchased Invitrogen PV3313
T2 sequence (P28482 whole entry): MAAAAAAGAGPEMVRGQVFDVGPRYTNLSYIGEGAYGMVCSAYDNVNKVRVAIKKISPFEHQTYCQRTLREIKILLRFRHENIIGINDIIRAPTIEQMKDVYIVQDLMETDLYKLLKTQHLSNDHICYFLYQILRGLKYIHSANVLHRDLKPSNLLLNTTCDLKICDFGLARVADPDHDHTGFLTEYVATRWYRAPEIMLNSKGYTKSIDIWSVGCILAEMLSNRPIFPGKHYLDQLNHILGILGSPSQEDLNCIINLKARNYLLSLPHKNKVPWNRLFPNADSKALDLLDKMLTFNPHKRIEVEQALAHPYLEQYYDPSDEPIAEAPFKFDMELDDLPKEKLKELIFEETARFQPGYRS
Method in brief: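 Recombinant ERK-2 (0.08 nM) with ULight-MBP peptide (0.5 μM) and ATP (38.15 μM) in Hepes pH 7.4 buffer, compound 100 nM to 0.005 nM final, 4% DMSO, 60 min at room temperature. Eu-anti-p-MBP TR-FRET (665/615 nm) read after EDTA stop; % inhibition versus DMSO and no-enzyme controls fitted 4-parameter for Abs_IC50.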

[4] = conventional solvents, background statement; cited from earlier work
[5] = mouse, male Balb/c mice, PO 50 mg/kg, plasma
[6] = 100 mg/kg QD × 3 w, intragastric, Day 21

Exposure in mouse plasma ([1]; dose of 50 mg/kg, oral) | Cmax [1, 5] [ng/mL] | MRT [1, 5] [h] | Tmax [1, 5] [h] | half-life [1, 5] [h] | AUC(0-t) ([1]; mouse, male Balb/c mice, PO 50 mg/kg, plasma, read-out: AUC0-24) [ng·h/mL] | IC50 (ERK-1 kinase) [nM] | Solubility compared with ERK compounds of the prior art [3] | IC50 (ERK-2 kinase) [nM] | SMILES | Tumor volume (Mean ± SD) Day 0 ([2]; 100 mg/kg QD × 3 w, intragastric, Day 0) [mm^3] | TGI Day 21 [2, 6] [%] | Tumor volume (Mean ± SD) Day 21 [2, 6] [mm^3] | ΔT/ΔC Day 21 [2, 6] [%] | Inhibition of growth of xenograft ([2]; 100 mg/kg QD, continuous oral administration for 21 days) | Solubility [4]
good exposure | 8260 | 2.33 | 1 | 0.83 | 27300 | 0.41 | higher solubility | 0.18 | C[C@@H](NC(=O)c1nc2cc3c(-c4ccncc4)n[nH]c3cc2[nH]1)c1ccc(F)cc1 [Example 7, (R)—N-(1-(4-fluorophenyl)ethyl)-3-(pyridin-4-yl)-1,7-dihydroimidazo[4,5-f]indazole-6-carboxamide] | 156 ± 33 | 58.3 | 426 ± 205 | 41.63 | significantly inhibit the growth | 
 |  |  |  |  |  |  |  |  | O=C1Nc2cc3[nH]nc(-c4ccncc4)c3cc2CN1Cc1ccccc1 [KO-947] |  |  |  |  |  | poor solubility
